Results from BigSolDB 2.1.

C[C@@H]1OC(=O)[C@H](C)OC1=O
Details | solubility (mole fraction)
in acetone, 278.95 K | 0.217
in acetone, 286.95 K | 0.247
in acetone, 290.65 K | 0.265
in acetone, 294.65 K | 0.283
in acetone, 299.35 K | 0.307
in acetone, 304.95 K | 0.335
in acetone, 309.15 K | 0.36
in acetone, 314.35 K | 0.394
in acetone, 319.05 K | 0.423
in acetone, 323.35 K | 0.455
in acetone, 328.25 K | 0.49
in ethanol, 283.95 K | 0.00281
in ethanol, 288.65 K | 0.00423
in ethanol, 295.35 K | 0.00878
in ethanol, 299.95 K | 0.0135
in ethanol, 303.45 K | 0.031
in ethanol, 310.15 K | 0.044
in ethanol, 314.65 K | 0.0569
in ethanol, 319.95 K | 0.081
in ethanol, 325.15 K | 0.115
in ethanol, 329.25 K | 0.161
in ethanol, 333.25 K | 0.258
in ethanol, 336.45 K | 0.337
in ethyl acetate, 277.05 K | 0.115
in ethyl acetate, 282.35 K | 0.131
in ethyl acetate, 287.65 K | 0.147
in ethyl acetate, 296.15 K | 0.178
in ethyl acetate, 301.65 K | 0.199
in ethyl acetate, 305.15 K | 0.221
in ethyl acetate, 308.35 K | 0.242
in ethyl acetate, 313.15 K | 0.272
in ethyl acetate, 318.25 K | 0.311
in ethyl acetate, 324.95 K | 0.369
in ethyl acetate, 331.35 K | 0.436
in ethyl acetate, 336.35 K | 0.491
in isopropanol, 279.65 K | 0.00822
in isopropanol, 290.95 K | 0.0131
in isopropanol, 295.65 K | 0.017
in isopropanol, 299.95 K | 0.0208
in isopropanol, 304.15 K | 0.0256
in isopropanol, 309.35 K | 0.0338
in isopropanol, 314.15 K | 0.0455
in isopropanol, 318.65 K | 0.0605
in isopropanol, 323.65 K | 0.0854
in isopropanol, 329.15 K | 0.127
in isopropanol, 333.15 K | 0.177
in methanol, 278.25 K | 0.0153
in methanol, 282.15 K | 0.0221
in methanol, 284.15 K | 0.0231
in methanol, 290.25 K | 0.0302
in methanol, 294.25 K | 0.0373
in methanol, 298.85 K | 0.0474
in methanol, 302.25 K | 0.0614
in methanol, 308.15 K | 0.0895
in methanol, 311.45 K | 0.116
in methanol, 315.75 K | 0.126
in methanol, 322.25 K | 0.204
in methanol, 332.55 K | 0.282
in methanol, 333.15 K | 0.337
in toluene, 278.55 K | 0.0128
in toluene, 283.65 K | 0.0211
in toluene, 286.95 K | 0.0231
in toluene, 291.15 K | 0.029
in toluene, 298.35 K | 0.0371
in toluene, 303.15 K | 0.0436
in toluene, 308.15 K | 0.0666
in toluene, 315.95 K | 0.0854
in toluene, 321.65 K | 0.108
in toluene, 324.25 K | 0.135
in toluene, 326.95 K | 0.157
